Measurements taken from ChEMBL document CHEMBL5252536, “Discovery of VU0467485/AZ13713945: An M4 PAM Evaluated as a Preclinical Candidate for the Treatment of Schizophrenia” (ACS Med Chem Lett, 2017).
In brackets after ≈: the same amount, converted by molar mass.

Legend:
[1] = target: T1, Muscarinic acetylcholine receptor M4 (Homo sapiens) (UniProt P08173); assay: Positive allosteric modulator activity at human M4 receptor expressed in CHO cells co-expressing Gqi5 assessed as maximal response to ACh by calcium mobilization assay relative to contol; type: cell-based; conditions: filed as positive allosteric modulator
T1 sequence (whole entry): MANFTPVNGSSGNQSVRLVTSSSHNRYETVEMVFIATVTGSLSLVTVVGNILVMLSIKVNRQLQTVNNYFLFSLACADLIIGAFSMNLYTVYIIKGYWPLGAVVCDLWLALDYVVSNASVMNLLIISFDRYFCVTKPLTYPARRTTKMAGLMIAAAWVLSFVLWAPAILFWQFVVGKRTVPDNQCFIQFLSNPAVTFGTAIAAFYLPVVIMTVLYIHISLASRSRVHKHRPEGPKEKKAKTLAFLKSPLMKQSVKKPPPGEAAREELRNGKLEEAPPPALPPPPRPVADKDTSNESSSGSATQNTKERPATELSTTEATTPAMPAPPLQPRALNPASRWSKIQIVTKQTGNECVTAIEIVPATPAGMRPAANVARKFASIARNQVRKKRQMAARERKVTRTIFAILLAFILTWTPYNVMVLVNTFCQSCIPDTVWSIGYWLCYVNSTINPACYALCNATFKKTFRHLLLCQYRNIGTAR

[2] = test system: CHO; assay: Positive allosteric modulator activity at dog M4 receptor expressed in CHO cells co-expressing Gqi5 assessed as maximal response to ACh by calcium mobilization assay relative to contol; type: cell-based; conditions: Canis lupus familiaris, filed as positive allosteric modulator
[3] = Positive allosteric modulator activity at cynomolgus monkey M4 receptor expressed in CHO cells co-expressing Gqi5 in presence of EC20 concentration of acetylcholine by calcium mobilization assay; type: cell-based; conditions: Macaca fascicularis
[4] = target: T2, Cytochrome P450 3A4 (Homo sapiens, UniProt P08684); assay: Inhibition of CYP34A in human liver microsomes using midazolam as substrate incubated for 15 mins in presence of NADPH by LC/MS/MS analysis; type: ADME, Microsome
T2 sequence (P08684 whole entry): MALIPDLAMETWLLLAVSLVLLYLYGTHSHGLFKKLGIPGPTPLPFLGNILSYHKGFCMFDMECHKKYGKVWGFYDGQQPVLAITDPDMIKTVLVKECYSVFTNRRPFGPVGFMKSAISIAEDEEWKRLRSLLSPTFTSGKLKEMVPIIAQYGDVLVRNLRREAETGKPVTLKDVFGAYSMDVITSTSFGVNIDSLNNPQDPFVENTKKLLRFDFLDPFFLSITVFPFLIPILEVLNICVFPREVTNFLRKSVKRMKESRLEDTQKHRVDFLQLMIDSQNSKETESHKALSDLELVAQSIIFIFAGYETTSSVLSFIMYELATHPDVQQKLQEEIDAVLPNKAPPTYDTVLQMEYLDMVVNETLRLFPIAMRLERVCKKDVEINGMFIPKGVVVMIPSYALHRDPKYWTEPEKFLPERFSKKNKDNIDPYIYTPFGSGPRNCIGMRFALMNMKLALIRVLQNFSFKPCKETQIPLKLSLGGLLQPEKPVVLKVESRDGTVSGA

[5] = target: T3, Cytochrome P450 1A2 (Homo sapiens, UniProt P05177); assay: Inhibition of CYP1A2 in human liver microsomes using phenacetin as substrate incubated for 15 mins in presence of NADPH by LC/MS/MS analysis; type: ADME, Microsome
T3 sequence (P05177 whole entry): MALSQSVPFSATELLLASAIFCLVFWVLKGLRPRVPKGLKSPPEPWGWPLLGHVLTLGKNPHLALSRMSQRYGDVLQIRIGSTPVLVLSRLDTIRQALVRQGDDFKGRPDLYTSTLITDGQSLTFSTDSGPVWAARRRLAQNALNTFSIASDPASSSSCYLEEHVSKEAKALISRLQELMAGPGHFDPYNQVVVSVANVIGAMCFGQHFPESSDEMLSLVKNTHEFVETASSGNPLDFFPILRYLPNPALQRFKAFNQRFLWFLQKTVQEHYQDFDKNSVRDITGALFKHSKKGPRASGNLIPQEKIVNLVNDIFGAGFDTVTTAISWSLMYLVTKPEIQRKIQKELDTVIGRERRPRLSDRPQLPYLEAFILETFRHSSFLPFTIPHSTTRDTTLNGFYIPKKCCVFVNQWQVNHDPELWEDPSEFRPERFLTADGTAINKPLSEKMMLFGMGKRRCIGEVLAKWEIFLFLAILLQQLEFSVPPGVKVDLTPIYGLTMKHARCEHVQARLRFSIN

[6] = target: T2, Cytochrome P450 3A4; assay: Activation of CYP34A in human hepatocyte using midazolam as substrate preincubated for 5 days followed by substrate addition and measured after 1 hr by LC-MS/MS analysis; type: ADME, cell-based
[7] = Genotoxicity in Salmonella typhimurium TA98 by Ames test; type: toxicity; conditions: salmonella enterica subsp. enterica serovar typhimurium
[8] = Oral bioavailability in Sprague-Dawley rat at 3 mg/kg by LC-MS/MS analysis; type: ADME, organism-based; conditions: in vivo
[9] = Elimination half life in Beagle dog at 3 mg/kg,po or 1 mg/kg,iv by LC-MS/MS analysis; type: ADME, organism-based, Canis lupus familiaris; conditions: in vivo, read-out: beta t1/2 (converted)
[10] = Cmax in Beagle dog at 3 mg/kg,po by LC-MS/MS analysis; type: ADME, organism-based, Canis lupus familiaris; set-up: dose 3 mg/kg, route po; conditions: in vivo
[11] = Oral bioavailability in Beagle dog at 3 mg/kg by LC-MS/MS analysis; type: ADME, organism-based, Canis lupus familiaris; conditions: in vivo
[12] = Ratio of drug concentration in Sprague-Dawley rat brain to plasma at 1 to 10 mg/kg, po by LC-MS/MS analysis; type: ADME, organism-based; conditions: dose 1-10 mg/kg, read-out: BPR
[13] = Ratio of drug concentration in Beagle dog brain to plasma at 3 mg/kg, po by LC-MS/MS analysis; type: ADME, organism-based, Canis lupus familiaris; conditions: read-out: BPR
[14] = target: GABA-A receptor; anion channel; assay: Inhibition of rat GABAA receptor; type: protein-complex assay
[15] = target: Cytochrome P450 2C19 (Homo sapiens, UniProt P33261); assay: […] of human CYP2C19 mediated drug metabolism incubated for 5 mins followed by NADPH addition measured after 1 hr by LC-UV/MS analysis relative to control; type: ADME; conditions: recombinant enzyme, 1.083 h, time 65 min
Chain of Cytochrome P450 2C19 (P33261 whole entry): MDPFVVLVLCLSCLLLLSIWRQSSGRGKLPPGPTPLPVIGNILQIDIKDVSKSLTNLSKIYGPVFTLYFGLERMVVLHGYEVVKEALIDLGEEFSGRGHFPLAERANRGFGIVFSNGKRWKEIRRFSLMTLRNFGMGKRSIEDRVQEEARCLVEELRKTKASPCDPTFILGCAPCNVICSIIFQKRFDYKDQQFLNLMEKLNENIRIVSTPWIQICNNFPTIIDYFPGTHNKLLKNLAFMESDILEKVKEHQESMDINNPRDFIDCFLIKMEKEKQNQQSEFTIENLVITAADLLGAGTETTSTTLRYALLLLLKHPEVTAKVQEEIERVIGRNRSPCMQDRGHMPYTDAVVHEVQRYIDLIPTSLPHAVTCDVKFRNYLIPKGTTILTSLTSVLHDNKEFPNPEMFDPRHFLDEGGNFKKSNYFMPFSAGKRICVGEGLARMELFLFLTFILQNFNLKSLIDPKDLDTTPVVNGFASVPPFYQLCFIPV

[16] = target: Cytochrome P450 2C9 (Homo sapiens, UniProt P11712); assay: […] of human CYP2C9 mediated drug metabolism incubated for 5 mins followed by NADPH addition measured after 1 hr by LC-UV/MS analysis relative to control; type: ADME; conditions: recombinant enzyme, 1.083 h, time 65 min
Chain of Cytochrome P450 2C9 (P11712 whole entry): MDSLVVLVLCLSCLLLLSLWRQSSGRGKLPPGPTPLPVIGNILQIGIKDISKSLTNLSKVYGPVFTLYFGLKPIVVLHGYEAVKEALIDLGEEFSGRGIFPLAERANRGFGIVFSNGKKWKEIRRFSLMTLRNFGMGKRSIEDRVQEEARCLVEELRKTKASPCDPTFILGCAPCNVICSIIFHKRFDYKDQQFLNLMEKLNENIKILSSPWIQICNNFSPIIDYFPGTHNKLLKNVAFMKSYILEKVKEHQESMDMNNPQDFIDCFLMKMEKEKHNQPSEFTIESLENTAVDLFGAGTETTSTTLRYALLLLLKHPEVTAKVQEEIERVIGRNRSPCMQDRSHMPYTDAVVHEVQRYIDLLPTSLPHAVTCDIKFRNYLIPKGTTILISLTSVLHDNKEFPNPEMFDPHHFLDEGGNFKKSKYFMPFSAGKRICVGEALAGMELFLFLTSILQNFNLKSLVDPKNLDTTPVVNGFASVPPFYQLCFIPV

[17] = test system: Rattus norvegicus; assay: Antipsychotic activity in amphetamine-induced hyperlocomotion activity in rat assessed as minimum effective dose at 1 administered orally preincubated for 30 mins followed by amphetamine addition and measured after 60 mins by open field test; type: functional; conditions: 1.5 h, route po, time 90 min, read-out: MED
[18] = Terminal brain concentration in rat model of amphetamine-induced hyperlocomotion activity at 1 to 10 mg/kg, po measured after 1.5 hrs; type: ADME, organism-based; conditions: dose 1-10 mg/kg, read-out: Ct
[19] = Terminal unbound plasma concentration in rat model of amphetamine-induced hyperlocomotion activity at 1 to 10 mg/kg, po measured after 1.5 hrs; type: ADME, organism-based; conditions: in vivo, dose 1-10 mg/kg
[20] = Aqueous solubility of compound at pH 7.4; type: physicochemical; conditions: buffer

- Activity [1]: 80.6%
- Activity ([1]; tested as the 2H-labelled form): 87.1%
- EC50 [3]: 102 nM
- IC50 [4]: > 30000 nM
- IC50 [5]: > 30000 nM
- EC50 [6]: > 50000 nM
- bioavailability [8]: 79%
- half-life [9]: 1.3 h
- Cmax [10]: 220 nM
- bioavailability [11]: 9.5%
- Kp [12]: 0.31
- Kp [13]: 1
- IC50 [14]: 1200 nM
- Activity [15]: 31.2%
- Activity [16]: 3.5%
- concentration at 1.5 h [18]: 560 nM
- Cp(f) [19]: 60 nM
- solubility [20]: 2.4 µM (≈ 0.865 µg/mL)
SMILES: COc1ccc(CNC(=O)c2sc3nnc(C)c(C)c3c2N)cc1F
- Activity [2]: 49%
- Activity [7]: Non-Toxic
- minimal effective dose [17]: 10 mg/kg
